We go through 4 compounds from paper PMC13316043, “Structural basis of NSD2 degradation via targeted recruitment of SCF-FBXO22” (Nature Communications, 2026).

One test concerns BACH1. Nature of the test: Western blot of BACH1 in HEK293T cells. Format: cell-based, human. The procedure:
(§1) HEK293T and U2OS were obtained from ATCC and cultured in high-glucose-containing Dulbecco’s Modified Eagle’s Medium (DMEM; Gibco; cat. #11995) supplemented with 10% fetal bovine serum (VWR) and 1% penicillin/streptomycin (Gibco). Cells were treated with either UNC10415667, UNC12149, UNC12567, hemin (Sigma; cat. #H9039), or DMSO control for the indicated times and analyzed by western blot using standard procedures. Briefly, cells were lysed on ice for 15 min in NETN lysis buffer (20 mM Tris pH 8.0, 100 mM NaCl, 0.5 mM EDTA, 0.5% NP40) supplemented with 10 µg/mL aprotinin, 10 µg/mL leupeptin, 10 µg/mL pepstatin A, 1 mM sodium orthovanadate, 1 mM sodium fluoride, and 1 mM AEBSF (4-[two aminoethyl] benzenesulfonyl fluoride). Cell lysates were centrifuged at 20,000×g in a benchtop microcentrifuge at 4 °C for 10 min. Protein concentration was determined by Bradford assay (Bio-Rad; cat. #5000006). Protein concentration was normalized using Laemmli buffer. Samples were heated for 5 min at 95°C in a dry water-bath. Samples were separated on TGX stain free gels (Bio-Rad) transferred to nitrocellulose membrane and blocked in 5% non-fat dry milk (Biorad; cat. #1706404) diluted in 1x TBS-T (137 mM NaCl, 2.7 mM KCl, 25 mM Tris pH 7.6, 1% Tween-20). Primary antibody incubations (Anti-NSD2 (Abcam; Cat# ab75359; Lot# 1093214-1; 1:1000 dilution), Anti-BACH1 (Fortis Life Sciences; Cat# A303-805A; Lot# 1; 1:1000 dilution), and Anti-GAPDH (Santa Cruz Biotechnology; Cat# sc-47724; Lot# C1023; 1:1000 dilution)) were performed overnight at 4 °C. Secondary antibodies (Peroxidase AffiniPure Goat Anti-Rabbit IgG (H + L) (Jackson Immuno; Cat# 111-035-003; 1:5000 dilution) and Peroxidase AffiniPure Goat Anti-Mouse IgG (H + L) (Jackson Immuno; Cat# 115-035-003; 1:5000 dilution)) were incubated for 1 h at room temperature. Blots were developed by chemiluminescence using Pierce ECL (Thermo Fisher Scientific; cat. #32106).
On the technique in general: In western blotting, separated proteins are transferred to a membrane and probed.

Test [1] addresses T1, NSD2 (long and short forms) (Homo sapiens, UniProt O96028).
T1 sequence (O96028 211-350 limits assumed): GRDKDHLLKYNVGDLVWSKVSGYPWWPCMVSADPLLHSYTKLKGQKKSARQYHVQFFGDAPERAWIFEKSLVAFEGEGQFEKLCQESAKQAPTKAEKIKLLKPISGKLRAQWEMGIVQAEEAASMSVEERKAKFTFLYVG
As to the kind of experiment: Western blot of NSD2 in HEK293T cells. Format: cell-based. The following applies: 10 µM, 6 hrs, vs DMSO. The procedure: as §1

Test [2] concerns FBXO22-NSD2 PWWP1 ternary complex. Nature of the test: Size-exclusion chromatography to monitor ternary complex formation. Format: binding, human. The procedure: Formation of the SCF^FBXO22-UNC10088-NSD2 PWWP1 and SCF^FBXO22-UNC10415667-NSD2 PWWP1 ternary complexes was performed by incubating SKP1-FBXO22, CUL1-RBX1, NSD2 PWWP1, and UNC10088 or UNC10415667 at a 1:1:1:1 molar ratio for 4 h on ice. The SCF^FBXO22-UNC10088-NSD2 PWWP1-BACH1 BTB ternary complex was formed by incubating SKP1-FBXO22, CUL1-RBX1, NSD2 PWWP1, UNC10088, and BACH1 BTB at a 1:1:1:1:1.5 molar ratio for 1 h on ice. The incubated sample was loaded onto a Superdex 200 Increase SD200 column (Cytiva), equilibrated with 20 mM HEPES pH 8, 200 mM NaCl, 1 mM DTT, for size-exclusion chromatography, and fractions containing all subunits of the SCF^FBXO22-Degrader-NSD2 PWWP1 complex were pooled and concentrated. The SCF^FBXO22-UNC10088-NSD2 PWWP1, SCF^FBXO22-UNC10415667-NSD2 PWWP1, and SCF^FBXO22-UNC10088-NSD2 PWWP1-BACH1 BTB complexes were concentrated to 33 µM, 10.9 µM, and 4.1 µM, respectively, and flash frozen. […] In contrast, only the PWWP1 and BTB domains of NSD2 and BACH1, respectively, were used.
FBXO22 WT and variants were incubated on ice with NSD2 PWWP1 and either UNC10088 or UNC10415667 at 5 µM. After 1 h, the samples were centrifuged at 16,060 x g for 10 min at 4 °C. Each sample was examined for C326- and compound-dependent complex formation by comparing the SEC chromatograms and Coomassie-stained SDS-PAGE gels. […] These experiments were performed using a Superdex 200 Increase SD200 column (Cytiva) and 20 mM HEPES pH 8, 200 mM NaCl, 1 mM DTT.
Background: SEC sorts molecules by how far they enter the pores of the column.

For test [3], the system named is NSD2 and other known FBXO22 substrates. The following applies: prior work; cited from earlier work.
Test [4] addresses T2, *NSD2 PWWP1 ubiquitination by SCF^FBXO22 (Homo sapiens, UniProt O96028+Q8NEZ5).
T2 construct: fluorescently labeled NSD2-PWWP1 (*NSD2-PWWP1); the FIST domain of FBXO22 rather than full-length FBXO22 that is used in the ubiquitination; 6xHis (N, cleaved yes); GST (cleaved yes); made in house; host or cells: SKP1-FBXO22: Trichoplusia ni insect cells; NSD2 PWWP1 and NEDD8: E. coli BL21(DE3)-CodonPlus RIL
Nature of the test: Ubiquitination assay using purified components. Format: biochemical. The note with it: compound at 0.5 µM, fluorescent SDS-PAGE. The procedure:
Ubiquitination assays were performed by mixing 2 separate solutions. First, SKP1-FBXO22, fluorescently labeled NSD2-PWWP1 (*NSD2-PWWP1), and compounds, unless otherwise indicated, were pre-incubated for 15 min on ice. Second, UBA1, UBE2R2, UBE2D2 or UBE2L3 and ARIH1, NEDD8 ~ CUL1-RBX1, MgATP, and reaction buffer (20 mM HEPES pH 8, 200 mM NaCl, 0.5 mg/mL bovine serum albumin (BSA)) were combined on ice to generate a master mix. A standard volume of master mix was added to each reaction tube, and Ub was added to initiate the ubiquitination reaction containing 100µM Ub, 1µM SKP1-FBXO22, 0.5µM *NSD2 PWWP1, 0.5µM compound, 0.1µM UBA1, 1µM UBE2R2, 1µM UBE2D2 or 1µM UBE2L3, and 1µM ARIH1, 1µM NEDD8~CUL1-RBX1, and 5mM MgATP in reaction buffer. Ubiquitination assays comparing *NSD2 PWWP1 mutants were performed similarly, except that SKP1-FBXO22, *NSD2 PWWP1 mutants, and compounds were not incubated separately prior to the start of the reaction. The reactions proceeded at room temperature for 15 min until they were quenched by adding SDS Loading Buffer. The ubiquitinated *NSD2 PWWP1 was visualized by subjecting the reactions to SDS-PAGE and imaging using the Amersham Typhoon.

The target in test [5] is T3, NSD2 (U2OS NSD2-HiBiT cells) (Homo sapiens, UniProt O96028).
T3 construct: RNPs were introduced into U2OS cells by electroporation; endogenous in cells; host or cells: U2OS NSD2-HiBiT clone P112 (CRISPR knock-in)
T3 sequence (O96028 1-1365): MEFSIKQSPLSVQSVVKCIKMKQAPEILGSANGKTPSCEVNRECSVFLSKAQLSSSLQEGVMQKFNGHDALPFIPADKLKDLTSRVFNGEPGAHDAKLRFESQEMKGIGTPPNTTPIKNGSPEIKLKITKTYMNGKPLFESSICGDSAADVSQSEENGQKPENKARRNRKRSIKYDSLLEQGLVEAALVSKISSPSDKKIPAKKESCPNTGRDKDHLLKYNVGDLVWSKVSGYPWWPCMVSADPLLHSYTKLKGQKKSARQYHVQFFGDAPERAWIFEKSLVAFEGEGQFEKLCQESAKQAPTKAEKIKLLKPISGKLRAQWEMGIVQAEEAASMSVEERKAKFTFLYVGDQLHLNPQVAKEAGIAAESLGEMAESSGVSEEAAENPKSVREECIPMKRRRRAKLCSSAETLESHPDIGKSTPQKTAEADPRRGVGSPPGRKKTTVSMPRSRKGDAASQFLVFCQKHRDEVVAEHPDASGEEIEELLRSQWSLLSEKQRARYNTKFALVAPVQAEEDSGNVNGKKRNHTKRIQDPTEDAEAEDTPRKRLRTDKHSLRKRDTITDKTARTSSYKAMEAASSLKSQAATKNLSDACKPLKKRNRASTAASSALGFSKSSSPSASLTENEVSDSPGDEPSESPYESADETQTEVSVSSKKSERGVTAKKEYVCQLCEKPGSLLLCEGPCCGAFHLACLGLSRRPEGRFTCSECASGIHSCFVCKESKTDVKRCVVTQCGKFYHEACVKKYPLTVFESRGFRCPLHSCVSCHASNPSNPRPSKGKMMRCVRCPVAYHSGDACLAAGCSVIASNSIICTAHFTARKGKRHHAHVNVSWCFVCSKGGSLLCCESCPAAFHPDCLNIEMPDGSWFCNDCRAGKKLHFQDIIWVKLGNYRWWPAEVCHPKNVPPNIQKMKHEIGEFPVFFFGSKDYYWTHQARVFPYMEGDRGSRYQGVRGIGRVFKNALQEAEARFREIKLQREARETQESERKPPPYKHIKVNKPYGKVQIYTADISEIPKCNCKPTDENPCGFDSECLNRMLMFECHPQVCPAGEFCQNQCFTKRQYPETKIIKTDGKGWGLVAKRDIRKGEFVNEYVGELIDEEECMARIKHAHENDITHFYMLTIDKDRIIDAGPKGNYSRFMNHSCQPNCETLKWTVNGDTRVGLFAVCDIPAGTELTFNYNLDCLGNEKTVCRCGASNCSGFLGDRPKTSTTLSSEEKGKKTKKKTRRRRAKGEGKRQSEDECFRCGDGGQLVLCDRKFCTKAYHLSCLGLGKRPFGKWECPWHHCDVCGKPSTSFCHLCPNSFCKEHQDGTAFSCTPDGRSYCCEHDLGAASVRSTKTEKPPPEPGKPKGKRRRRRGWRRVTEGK
Nature of the test: NSD2 HiBiT degradation assay. Format: cell-based. The note with it: U2OS NSD2-HiBit cells, 1 µM, 6 h. An excerpt:
The NSD2 genomic sequence was obtained from the UCSC genome browser and used to design sgRNAs to introduce HiBiT tags at either the 5’ or 3’ ends of the gene. sgRNA were assembled into RNPs using TrueCut Cas9 Protein v2 (Invitrogen, Cat#A36497), an sgRNA crRNA:tracrRNA duplex (below; IDT) and ssODN (below; IDT). RNPs were introduced into U2OS cells by electroporation using a Neon XT electroporation system (1750 V, 10 ms, 3 pulses) in R-buffer, using Thermo Fisher Neon transfection kit (Cat# MPK1025K) and according to the manufacturer's protocol. After plating for recovery for four days, single cell clones limited dilution cloning. Single cell clones that grew out were identified as containing integrated HiBiT tags on NSD2 by performing HiBiT assays using HiBiT lytic assay (Promega: N3040) and read on a plate reader. Clones were further confirmed by PCR analysis.
To test compounds for NSD2 degradation, a compound plate was prepared by diluting compounds in DMSO into cell media in a 384-deep-well plate (Revvity). Then, 6 µL of the diluted compounds were transferred into the well of the 384-well assay plate (Corning). 24 µL of the NSD2 HiBiT U2OS P112 cells or parental U2OS cells (3000 cells/well) were added to each well to make a final volume of 30 µL with a 0.1% final DMSO concentration. For multiple time points, multiple assay plates were made and incubated in the incubator at 37 °C in 5% CO2 for 3/6/12/24/48 hrs. 10 min before the reading, the assay plate and the Nano-Glo HiBiT Lytic Detection System (Promega) were brought to room temperature. The HiBiT lytic reagent master mix was prepared according to the product instructions and added to the assay plate. The plate was then incubated on an orbital shaker for 5 min at room temperature, equilibrated for 10 min, and then read using the GloMax luminometer (Promega) for luminescence detection. Compound treatment was normalized to the DMSO control with the background subtraction using the parental U2OS cell line as the background control, plated alongside the HiBiT U2OS P112 cells. The data and graphs were then analyzed and generated using GraphPad Prism (v 10.4.1). DC50 and Dmax were calculated by fitting the data to a non-linear regression curve.
(In general: The HiBiT peptide binds its large partner to form an active luciferase.)

T2 sequence (Q8NEZ5 whole entry, one chain of several, the tested form may be a part): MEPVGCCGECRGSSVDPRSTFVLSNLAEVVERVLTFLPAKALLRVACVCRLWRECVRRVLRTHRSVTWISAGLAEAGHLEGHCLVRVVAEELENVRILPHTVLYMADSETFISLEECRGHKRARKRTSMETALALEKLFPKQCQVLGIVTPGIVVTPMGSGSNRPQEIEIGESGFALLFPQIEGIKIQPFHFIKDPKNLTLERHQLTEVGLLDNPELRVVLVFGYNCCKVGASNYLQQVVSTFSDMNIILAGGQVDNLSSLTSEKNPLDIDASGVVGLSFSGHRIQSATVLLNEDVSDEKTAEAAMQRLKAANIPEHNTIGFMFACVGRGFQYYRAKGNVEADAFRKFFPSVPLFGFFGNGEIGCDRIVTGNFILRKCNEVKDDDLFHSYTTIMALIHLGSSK

Take Hemin [reference compound]: the “BACH1 degradation by immunoblot” value in the test with BACH1 (20 µM Hemin) is reported as “degradation was promoted”.
As to `CC(C)N(Cc1ccc(C(=O)Nc2ccc3c(c2)CCN(C(=O)c2ccc(C=O)cc2)C3)cc1)C(=O)c1ccc2c(c1)OCC(=O)N2` [UNC12567], the “NSD2 levels by immunoblot” value in test [1] is “unchanged”. In addition, the “BACH1 levels by immunoblot” value in the test on BACH1 (10 µM, 6 hrs) is on record as “unchanged”. Further, in test [2], the “ternary complex formation between FBXO22 and NSD2 PWWP1 by SEC” value is “did not support ternary complex formation”.
`NCCCCCC(=O)N1CCc2cc(NC(=O)c3ccc(CN(C(=O)c4ccc5c(c4)OCC(=O)N5)C4CC4)cc3)ccc2C1` [UNC8732]: in test [3], the “selectivity of degradation in global proteomics” value is reported as “specifically degrades NSD2”. Moreover, in test [4], the “SCF^FBXO22-dependent ubiquitination of *NSD2 PWWP1” value was “no effect”.
For `O=Cc1ccc(CC(=O)N2CCc3cc(NC(=O)c4ccc(CN(C(=O)c5ccc6c(c5)OCC(=O)N6)C5CC5)cc4)ccc3C2)cc1` [UNC10415668], the “SCF^FBXO22-dependent ubiquitination of *NSD2 PWWP1” value in test [4] is on record as “able to induce polyubiquitination”. The “reduction of NSD2 levels” value in test [5] is listed as “more modest effect”.
